One test concerns the target T1, EP300 (P300(1048-1664)) (Homo sapiens, UniProt Q09472).
T1 construct: P300(1048-1664)
T1 sequence (Q09472 1048-1664): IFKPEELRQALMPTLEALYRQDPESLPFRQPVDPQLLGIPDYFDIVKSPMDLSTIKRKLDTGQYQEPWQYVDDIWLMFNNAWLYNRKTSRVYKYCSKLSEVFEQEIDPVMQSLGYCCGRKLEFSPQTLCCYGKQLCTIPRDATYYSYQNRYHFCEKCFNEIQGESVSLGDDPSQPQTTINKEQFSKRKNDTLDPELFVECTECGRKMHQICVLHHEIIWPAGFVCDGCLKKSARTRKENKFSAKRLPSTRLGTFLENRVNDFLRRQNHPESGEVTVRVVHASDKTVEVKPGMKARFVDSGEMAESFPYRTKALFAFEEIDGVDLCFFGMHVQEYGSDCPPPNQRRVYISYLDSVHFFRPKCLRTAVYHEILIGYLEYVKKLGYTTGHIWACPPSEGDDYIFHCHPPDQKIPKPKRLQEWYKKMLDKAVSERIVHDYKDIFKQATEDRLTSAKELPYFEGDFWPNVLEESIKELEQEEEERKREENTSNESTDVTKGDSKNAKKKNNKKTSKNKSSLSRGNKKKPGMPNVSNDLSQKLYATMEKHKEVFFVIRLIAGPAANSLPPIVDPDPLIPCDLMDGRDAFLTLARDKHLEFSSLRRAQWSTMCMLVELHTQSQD
Nature of the test: Biochemical assay for EP300, SAMDI. Particulars: EP300, SAMDI; read-out: EP300 Biochemistry IC50. The text has this: The following example describes materials and methods relating to a biochemical assay for EP300. IC50 values (micromolar (μM)) are summarized in Table 1, Table 2, and Table 3 under the column labeled: “EP300 Biochemistry IC50 (micromolar).”

Test [1] relates to H3K18Ac in HB-CLS-2 cells. The experiment in a line: H3K18AC in-cell western (ICW) assay. In kind it is cell-based. Particulars: H3K18Ac in-cell western; read-out: CREBBP ICW IC50. The procedure, abridged: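 HB-CLS-2 cells seeded 16–24 hours before 2 hr compound treatment at 37° C, 5% CO2, then methanol-fixed. H3K18Ac detected with rabbit monoclonal primary (overnight, 4° C) and 800CW anti-rabbit secondary; DRAQ5 stained DNA. Plates imaged at 700 and 800 nm for integrated intensity; IC50 in μM.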

The next test deals with T2, CREBBP (1084-1701) (Homo sapiens, UniProt Q92793).
T2 construct: measured in the following biochemical assay using CREBBP (1084-1701); purchased
Nature of the test: Biochemical assay for CREBBP (1084-1701), SAMDI. Particulars: SAMDI, read-out: CREBBP Biochemistry IC50. The method in brief: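 CREBBP (1084-1701) preincubated with compound 30 min at RT, then substrate mix (biotin-H3 11-25 K14R/K23R peptide, acetyl-CoA) added for 30 min at RT. Reaction stopped with formic acid, neutralised with sodium bicarbonate. Peptide acetylation read by SAMDI mass spectrometry to derive IC50.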

A further test concerns 647V cells. Nature of the test: High throughput proliferation (HTP) assay. Format: cell-based. To be noted: Homo sapiens, 647-V, high throughput proliferation; read-out: CREBBP HTP IC50. The procedure, abridged:
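Exponentially growing 647V cells in DMEM with 15% FBS were treated in triplicate with increasing compound concentrations at 37° C, 5% CO2. Viable cell number was read by CellTiter-Glo luminescence on day 7; IC50 in micromolar.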

This note sets out measurements from patent publication US20220144812A1, “QUINOLINE DERIVATIVES AND THEIR USE FOR THE TREATMENT OF CANCER” (Epizyme, Inc., priority 2019, published 2022).

T2 sequence (Q92793 1084-1701): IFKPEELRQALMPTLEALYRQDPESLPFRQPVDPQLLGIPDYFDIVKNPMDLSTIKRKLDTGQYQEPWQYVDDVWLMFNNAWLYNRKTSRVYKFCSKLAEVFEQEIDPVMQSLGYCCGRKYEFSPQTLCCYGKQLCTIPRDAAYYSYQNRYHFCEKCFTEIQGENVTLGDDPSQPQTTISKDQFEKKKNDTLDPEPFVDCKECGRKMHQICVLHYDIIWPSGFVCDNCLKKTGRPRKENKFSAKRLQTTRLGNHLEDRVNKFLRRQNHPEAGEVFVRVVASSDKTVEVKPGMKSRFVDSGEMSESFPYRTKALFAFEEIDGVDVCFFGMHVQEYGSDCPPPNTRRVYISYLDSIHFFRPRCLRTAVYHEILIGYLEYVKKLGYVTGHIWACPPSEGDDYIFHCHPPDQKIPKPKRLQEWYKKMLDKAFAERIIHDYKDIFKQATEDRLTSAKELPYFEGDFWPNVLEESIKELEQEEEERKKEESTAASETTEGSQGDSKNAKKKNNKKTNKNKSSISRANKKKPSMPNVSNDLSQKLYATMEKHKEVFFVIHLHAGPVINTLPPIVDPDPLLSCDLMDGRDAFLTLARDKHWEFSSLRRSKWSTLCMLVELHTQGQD

As usually defined, the IC50 is the concentration that inhibits the measured activity by half. With `CCn1ncc(CN(C)C(=O)c2cc(-c3ccnc(N)c3)nc3ccc(Cl)cc23)c1C` [Compound 94], the IC50 on EP300 (P300(1048-1664)) turned out to be 1500 nM; in test [1] it was 1700 nM; on CREBBP (1084-1701) it was 2100 nM; with 647V cells, 1500 nM.
On to `CCn1ncc(CN(C)C(=O)c2nc(-c3ccc(OCCOC)cc3Cl)nc3ccc(Cl)cc23)c1C` [Compound 96], for which the IC50 was 1500 nM at EP300 (P300(1048-1664)), 1900 nM in test [1], 740 nM at CREBBP (1084-1701) and 1800 nM in the test with 647V cells.
Turning to `CCn1ncc(CN(C)C(=O)c2nc(-c3cc(C)cc(NCCN(C)C(=O)OC(C)(C)C)c3)nc3ccc(Cl)cc23)c1C` [Compound 99], the IC50 on EP300 (P300(1048-1664)) is 2600 nM; in test [1], 2000 nM; at CREBBP (1084-1701), 2200 nM; in the test on 647V cells, 2100 nM.
For the compound `CCn1ncc(CN(C)C(=O)c2nc(-c3cn[nH]c3C)nc3ccc(Cl)cc23)c1C` [Compound 100], the IC50 on EP300 (P300(1048-1664)) turned out to be 6300 nM; in test [1] it was 2100 nM; at CREBBP (1084-1701) it was 11000 nM; in the test with 647V cells, 1600 nM.
In the case of `CCn1ncc(CN(C)C(=O)c2nc(-c3ccc(OCCO)c(OC)c3)nc3ccc(Cl)cc23)c1C` [Compound 102], the IC50 at EP300 (P300(1048-1664)) amounted to 4300 nM; in test [1] it was 2100 nM; at CREBBP (1084-1701), 4000 nM; in the test on 647V cells, 2300 nM.
Regarding `CCn1ncc(CN(C)C(=O)c2nc(-c3ccc4nc(C)n(C(=O)OC(C)(C)C)c4c3)nc3ccc(Cl)cc23)c1C` [Compound 104], the IC50 on EP300 (P300(1048-1664)) amounted to 13000 nM; in test [1], 2200 nM; on CREBBP (1084-1701), 9200 nM; in the test with 647V cells, 230 nM.
For `CCn1ncc(CN(C)C(=O)c2nc(-c3cc(C#N)cc(NCCN(C)C(=O)OC(C)(C)C)c3)nc3ccc(Cl)cc23)c1C` [Compound 105], the IC50 on EP300 (P300(1048-1664)) came to 2300 nM; in test [1], 2400 nM; at CREBBP (1084-1701), 3300 nM; in the test on 647V cells, 1800 nM.
`CC1CCCc2c(CN(C)C(=O)c3cc(-c4cccc(Cl)c4)nc4ccc(Cl)cc34)cnn21` (centres unmarked) [Compound 107]: the 50% inhibitory concentration (IC50) on EP300 (P300(1048-1664)) was determined as 590 nM; in test [1], 2500 nM; on CREBBP (1084-1701) it was 1100 nM; in the test with 647V cells it was 6200 nM.
Turning to `CCn1ncc(CN(C)C(=O)c2nc(-c3ccc(OCCOC)c(Cl)c3)nc3ccc(Cl)cc23)c1C` [Compound 108], the 50% inhibitory concentration (IC50) at EP300 (P300(1048-1664)) worked out at 930 nM; in test [1], 2500 nM; on CREBBP (1084-1701) it was 970 nM; in the test on 647V cells it was 2200 nM.
Consider `CCn1ncc(CN(C)C(=O)c2nc(-c3cnc[nH]3)nc3ccc(Cl)cc23)c1C` [Compound 109], for which the IC50 on EP300 (P300(1048-1664)) is 1400 nM; in test [1], 2500 nM; on CREBBP (1084-1701), 3900 nM; in the test on 647V cells it was 3500 nM.
Turning to `CCn1ncc(CN(C)C(=O)c2nc(-c3ccc(OCCCNC)cc3)nc3ccc(Cl)cc23)c1C` [Compound 110], the 50% inhibitory concentration (IC50) at EP300 (P300(1048-1664)) turned out to be 4400 nM; in test [1], 2600 nM; on CREBBP (1084-1701), 3200 nM; in the test on 647V cells it was 1400 nM.
The like results for `CCn1ncc(CN(C)C(=O)c2nc(-c3ccc(OCCO)c(F)c3)nc3ccc(Cl)cc23)c1C` [Compound 111] were, in that order, 4700 nM, 2600 nM, 6400 nM and 2400 nM.
With `CCn1ncc(CN(C)C(=O)c2nc(-c3ccc(NCCNC)cn3)nc3ccc(Cl)cc23)c1C` [Compound 112], the IC50 at EP300 (P300(1048-1664)) is 730 nM; in test [1], 2700 nM; on CREBBP (1084-1701), 1300 nM; in the test on 647V cells, 2100 nM.
For the compound `CCn1ncc(CN(C)C(=O)c2cc(-c3ccc(NCCN(C)C(=O)OC(C)(C)C)cn3)nc3ccc(Cl)cc23)c1C` [Compound 113], the IC50 is 1500 nM on EP300 (P300(1048-1664)), 2800 nM in test [1], 4800 nM at CREBBP (1084-1701) and 6700 nM with 647V cells.
The like results for `CCn1ncc(CN(C)C(=O)c2nc(-c3ccc(OCCN(C)S(C)(=O)=O)c(OC)c3)nc3ccc(Cl)cc23)c1C` [Compound 114] were, in that order, 4300 nM, 2800 nM, 5200 nM and 2800 nM.
Consider `CCn1ncc(CN(C)C(=O)c2nc(-c3cc(Cl)cc(NCCCN(C)C(=O)OC(C)(C)C)c3)nc3ccc(Cl)cc23)c1C` [Compound 115], for which the IC50 came out at 110 nM on EP300 (P300(1048-1664)), 2800 nM in test [1], 160 nM on CREBBP (1084-1701) and 4400 nM in the test on 647V cells.
In the same order, the values of `CCn1ncc(CN(C)C(=O)c2nc(-c3cc(CNC)ccc3C)nc3ccc(Cl)cc23)c1C` [Compound 116] are 6900 nM, 2900 nM, 3400 nM and 1900 nM.
In the same order, the values of `CCn1ncc(CN(C)C(=O)c2nc(-c3ccc(OCCNC(=O)OC(C)(C)C)c(Cl)c3)nc3ccc(Cl)cc23)c1C` [Compound 117] are 4300 nM, 3000 nM, 270 nM and 2400 nM.
In the case of `CCn1ncc(CN(C)C(=O)c2cc(-c3cn(C)cn3)nc3ccc(Cl)cc23)c1C` [Compound 119], the half-inhibitory concentration (IC50) on EP300 (P300(1048-1664)) came to 1300 nM; in test [1], 3300 nM; at CREBBP (1084-1701) it was 4500 nM; in the test on 647V cells, 690 nM.
`CCn1ncc(CN(C)C(=O)c2nc(-c3cc(Cl)cc(NCCN(C)C(=O)OC(C)(C)C)c3)nc3ccc(Cl)cc23)c1C` [Compound 121]: the half-maximal inhibitory concentration (IC50) stood at 860 nM on EP300 (P300(1048-1664)), 3500 nM in test [1], 410 nM at CREBBP (1084-1701) and 3800 nM with 647V cells.
With `CCn1ncc(CN(C)C(=O)c2cc(-c3ccc(OCC(=O)NC)c(OC)c3)nc3ccc(Cl)cc23)c1C` [Compound 122], the 50% inhibitory concentration (IC50) on EP300 (P300(1048-1664)) is 4300 nM; in test [1] it was 3600 nM; on CREBBP (1084-1701), 4500 nM; in the test on 647V cells it was 2100 nM.
The like results for `CCn1ncc(CN(C)C(=O)c2nc(-c3cc(Cl)cc(CN4CCNCC4)c3)nc3ccc(Cl)cc23)c1C` [Compound 124] were, in that order, 1400 nM, 3900 nM, 370 nM and 4100 nM.
The like results for `CCn1ncc(CN(C)C(=O)c2nc(-c3cn[nH]c3)nc3ccc(Cl)cc23)c1C` [Compound 125] were, in that order, 3500 nM, 4000 nM, 6300 nM and 4100 nM.
For `CCn1ncc(CN(C)C(=O)c2nc(-c3ccc(OCCCNC(=O)OC(C)(C)C)c(OC)c3)nc3ccc(Cl)cc23)c1C` [Compound 127], the 50% inhibitory concentration (IC50) turned out to be 15000 nM on EP300 (P300(1048-1664)), 4400 nM in test [1], 12000 nM on CREBBP (1084-1701) and 3500 nM with 647V cells.
As for `CCn1ncc(CN(C)C(=O)c2nc(-c3cc(Cl)cc(OCCCNC)c3)nc3ccc(Cl)cc23)c1C` [Compound 128], the IC50 at EP300 (P300(1048-1664)) turned out to be 800 nM; in test [1] it was 4500 nM; on CREBBP (1084-1701) it was 350 nM; in the test with 647V cells, 1900 nM.
In the case of `CCn1ncc(CN(C)C(=O)c2cc(-n3cc(C)cn3)nc3ccc(Cl)cc23)c1C` [Compound 129], the IC50 is 1400 nM at EP300 (P300(1048-1664)), 4600 nM in test [1], 7400 nM on CREBBP (1084-1701) and 8300 nM with 647V cells.
Consider `CCn1ncc(CN(C)C(=O)c2nc(-c3cccc(N)n3)nc3ccc(Cl)cc23)c1C` [Compound 131], for which the concentration for half-maximal inhibition (IC50) worked out at 2600 nM at EP300 (P300(1048-1664)), 4700 nM in test [1], 5500 nM on CREBBP (1084-1701) and 7500 nM with 647V cells.
Consider `CCn1ncc(CN(C)C(=O)c2nc(-c3ccc4[nH]nnc4c3)nc3ccc(Cl)cc23)c1C` [Compound 133], for which the IC50 at EP300 (P300(1048-1664)) stood at 470 nM; in test [1] it was 4900 nM; at CREBBP (1084-1701) it was 100 nM; with 647V cells it was 5900 nM.
With `CCn1ncc(CN(C)C(=O)c2nc(-c3ccnc(NC(C)=O)c3)nc3ccc(Cl)cc23)c1C` [Compound 135], the IC50 on EP300 (P300(1048-1664)) is 7100 nM; in test [1], 5100 nM; at CREBBP (1084-1701), 7500 nM; in the test on 647V cells, 6700 nM.
